{
  "source": "paper PMC9847973",
  "about": "“Characterizing inhibitors of human AP endonuclease 1” (PLOS ONE, 2023)",
  "key": {"apo APE1^ΔN38": {"molecular_target": "T1, apo APE1^ΔN38 (Homo sapiens, UniProt P27695)", "T1 construct": "Human APE1 lacking the 38 N-terminal residues (APE1^ΔN38); poly-His (N, cleaved yes); made in house; host or cells: E. coli", "T1 sequence (P27695 39-318)": "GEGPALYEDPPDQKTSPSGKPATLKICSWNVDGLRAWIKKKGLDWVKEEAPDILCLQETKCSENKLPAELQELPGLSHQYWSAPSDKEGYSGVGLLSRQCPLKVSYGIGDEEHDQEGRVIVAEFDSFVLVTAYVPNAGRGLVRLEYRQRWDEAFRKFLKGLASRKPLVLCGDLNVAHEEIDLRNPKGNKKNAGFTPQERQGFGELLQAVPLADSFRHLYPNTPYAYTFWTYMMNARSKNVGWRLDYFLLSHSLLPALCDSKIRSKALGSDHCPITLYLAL", "experiment": "NMR chemical shift perturbation (15N-TROSY), apo APE1", "format": "binding", "conditions": "for number of residues with substantial CSPs (Δδ ≥ 0.015 ppm) / sum of CSPs (ΣΔδ) for all assigned APE1 residues / number of residues with relatively strong CSPs (Δδ ≥ 0.03 ppm): apo APE1^ΔN38 0.15 mM, compound 1 mM"}, "[1]": {"experiment": "Dynamic light scattering (DLS) of compound aggregation", "format": "physicochemical", "conditions": "for effect of detergent on aggregation: 0.05% Brij 35; for concentration at which colloidal aggregates form: 20°C; for effect of centrifugation on aggregates: detergent-free buffer, centrifugation (60 min, 16000g)", "procedure": "Dynamic light scattering (DLS) experiments were performed to monitor compound aggregation, using a SpectroLight 610 instrument (Xtal Concepts, Hamburg). The instrument features a laser diode (λ 658 nm) which was set to a power of 100 mW and a scattering angle of 150°. For each sample, five replicates of 60 sec duration were collected at 20°C. Instrument settings, including integration time, were held constant for all experiments. Samples (1 ul) were prepared under mineral oil in 96 well SBS plates. Samples included the same buffer used for enzyme activity assays, with or without Brij 35 (and in all cases without BSA). The compounds were introduced from 100x stocks prepared in DMSO, giving a final DMSO concentration of 1%; samples without compound contained 1% DMSO. The DLS studies were in some cases performed using compound stocks that had been stored at –20°C in DMSO."}, "APE1": {"test_system": "APE1", "conditions": "cited from earlier work"}, "[2]": {"molecular_target": "T2, Human APE1 lacking the 38 N-terminal residues (APE1^ΔN38) (Homo sapiens, UniProt P27695)", "T2 construct": "Human APE1 lacking the 38 N-terminal residues (APE1^ΔN38); poly-His (N, cleaved yes); made in house; host or cells: E. coli", "T2 sequence (P27695 39-318)": "as above", "experiment": "APE1 endonuclease activity assay (HPLC, fraction activity)", "format": "biochemical"}, "Mg^2+-bound APE1": {"molecular_target": "T3, Mg^2+-bound APE1 (Homo sapiens, UniProt P27695)", "T3 construct": "Human APE1 lacking the 38 N-terminal residues (APE1^ΔN38); poly-His (N, cleaved yes); made in house; host or cells: E. coli", "T3 sequence (P27695 39-318)": "as above", "experiment": "NMR chemical shift perturbation (15N-TROSY), Mg2+-bound APE1", "format": "binding", "conditions": "MgCl2 0.25 mM or 1.0 mM", "procedure": "NMR samples (0.55 mL) contained uniformly ^15N-labeled APE1^ΔN38 (0.05 mM to 0.15 mM) in 0.02 M sodium phosphate pH 6.5, 0.1 M NaCl, 0.5 mM DTT, 0.2 mM EDTA, 10% D2O. The compounds were dissolved at 100x concentration in deuterated DMSO (DMSO-D6) and were added to the NMR samples at 1% (v/v) to give the desired compound concentration (and 1% DMSO-D6). Control samples contained APE1 with 1% DMSO-D6. […] NMR data were processed with NMRPipe, and analyzed using NMRFAM-Sparky. The chemical shift perturbation (Δδ) for backbone ^1H-^15N resonances (combined) was calculated (by NMRFAM-Sparky) using Eq 2, Δδ=ΔδH^2+ΔδN/5^2^1/2 (2) where ΔδH and ΔδN are the perturbations for ^1H and ^15N resonances, respectively.\nGiven the findings above, we sought to investigate whether compounds 6 or 7 might bind to the Mg^2+-bound form of APE1. […] Crystal structures of Mg^2+-bound APE1 have been determined, using crystals grown from a sample of APE1 with 1.0 mM MgCl2, a concentration that is sufficient to fully populate the metal-binding site with Mg^2+ [52, 73]. […]"}, "[3]": {"test_system": "enzyme-substrate (ES) complex involving APE1 (28 nM) and AP-DNA (10 nM)", "parameters": "method as in PMID 22455312", "conditions": "cited from earlier work; for population of AP-DNA bound: 100% in its absence"}, "[4]": {"experiment": "Precipitation of compound in NMR samples", "format": "physicochemical", "conditions": "NMR buffer pH 6.5", "procedure": "The NMR sample contained 0.03 mM compound 7 and 0.05 mM APE1, giving a molar ratio of 0.6. […] To minimize precipitation of 7, the NMR samples (including DMSO control) contained detergent (0.05% Brij 35) at the same concentration used for the activity assays. […] Thus, the NMR CSP studies provide no evidence that compound 7 binds specifically to apo-APE1. […] In particular, the population of AP-DNA bound was reduced from 100% (absence of 7) to about 30% and 5% in the presence of 7 at a concentration of 0.01 mM and 0.03 mM, respectively, indicating 7 binds with a Kd <0.01 mM to either APE1 or to AP-DNA."}, "[5]": {"conditions": "detergent-free assay buffer, 1% DMSO"}, "[6]": {"conditions": "no detergent or BSA, 37°C, read-out: IC50 for APE1 inhibition (prior findings)"}, "[7]": {"conditions": "read-out: IC50 for APE1 inhibition (reported)"}, "[8]": {"conditions": "0.05% Brij 35, 0.1 mg/ml BSA, 80 nM DNA substrate, 23°C, 1% DMSO, read-out: IC50 for APE1 inhibition"}},
  "note": "Like-named read-outs stand apart in the source and are kept apart here.",
  "data": [
    {"compound": "O=C(O)c1cc2cccc([N+](=O)[O-])c2[nH]1", "note": "[Compound 1, 7-nitroindole-2-carboxylic acid]", "values": [
      {"measurement": "number of residues with substantial CSPs (Δδ ≥ 0.015 ppm)", "setting": "apo APE1^ΔN38", "value": 14},
      {"measurement": "sum of CSPs (ΣΔδ) for all assigned APE1 residues", "setting": "apo APE1^ΔN38", "value": 1.19},
      {"measurement": "effect of detergent on aggregation", "setting": "[1]", "value": "disrupted by detergent"},
      {"measurement": "concentration at which colloidal aggregates form", "setting": "[1]; [5]", "value": 2000, "unit": "µM"},
      {"measurement": "effect of centrifugation on aggregates", "setting": "[1]", "value": "pelleted out of solution by centrifugation"},
      {"measurement": "IC50", "setting": "APE1; [6]", "value": "≤ 10", "unit": "µM"},
      {"measurement": "IC50", "setting": "APE1; [7]", "value": 3, "unit": "µM"}
    ]},
    {"compound": "O=C(O)c1cc2cc(F)ccc2[nH]1", "note": "[Compound 2, 5-fluoroindole-2-carboxylic acid]", "values": [
      {"measurement": "number of residues with substantial CSPs (Δδ ≥ 0.015 ppm)", "setting": "apo APE1^ΔN38", "value": "ten"},
      {"measurement": "sum of CSPs (ΣΔδ) for all assigned APE1 residues", "setting": "apo APE1^ΔN38", "value": 1.31},
      {"measurement": "effect of detergent on aggregation", "setting": "[1]", "value": "disrupted by detergent"},
      {"measurement": "concentrations at which the compound is free of aggregates", "setting": "[1]; [5]", "value": "below 3 mM"},
      {"measurement": "concentration at which colloidal aggregates form", "setting": "[1]; [5]", "value": 10000, "unit": "µM"},
      {"measurement": "effect of centrifugation on aggregates", "setting": "[1]", "value": "pelleted by centrifugation"},
      {"measurement": "IC50", "setting": "APE1; [6]", "value": "≤ 10", "unit": "µM"},
      {"measurement": "IC50", "setting": "APE1; [7]", "value": 10, "unit": "µM"}
    ]},
    {"compound": "O=C(O)c1cc2cc([N+](=O)[O-])ccc2[nH]1", "note": "[Compound 3, 5-nitroindole-2-carboxylic acid]", "values": [
      {"measurement": "number of residues with relatively strong CSPs (Δδ ≥ 0.03 ppm)", "setting": "apo APE1^ΔN38", "value": 14},
      {"measurement": "number of residues with substantial CSPs (Δδ ≥ 0.015 ppm)", "setting": "apo APE1^ΔN38", "value": 20},
      {"measurement": "sum of CSPs (ΣΔδ) for all assigned APE1 residues", "setting": "apo APE1^ΔN38", "value": 2.47},
      {"measurement": "effect of detergent on aggregation", "setting": "[1]", "value": "disrupted by detergent"},
      {"measurement": "effect of centrifugation on aggregates", "setting": "[1]", "value": "pelleted by centrifugation"}
    ]},
    {"compound": "O=C(O)c1cc2ccc(Br)cc2[nH]1", "note": "[Compound 4, 6-bromoindole-2-carboxylic acid]", "values": [
      {"measurement": "number of residues with relatively strong CSPs (Δδ ≥ 0.03 ppm)", "setting": "apo APE1^ΔN38", "value": "eight"},
      {"measurement": "number of residues with substantial CSPs (Δδ ≥ 0.015 ppm)", "setting": "apo APE1^ΔN38", "value": 22},
      {"measurement": "sum of CSPs (ΣΔδ) for all assigned APE1 residues", "setting": "apo APE1^ΔN38", "value": 2.54},
      {"measurement": "effect of detergent on aggregation", "setting": "[1]", "value": "disrupted by detergent"},
      {"measurement": "concentration at which colloidal aggregates form", "setting": "[1]; [5]", "value": "≥ 1000", "unit": "µM"},
      {"measurement": "effect of centrifugation on aggregates", "setting": "[1]", "value": "pelleted by centrifugation"}
    ]},
    {"compound": "O=c1c(O)c(-c2cc(O)c(O)c(O)c2)oc2cc(O)cc(O)c12", "note": "[Compound 5, myricetin]", "values": [
      {"measurement": "inhibition of APE1", "setting": "[2]; 0.33 mM compound, with detergent (0.05% Brij 35) and BSA", "value": "weak inhibition"},
      {"measurement": "effect of detergent on aggregation", "setting": "[1]", "value": "disrupted by detergent"},
      {"measurement": "concentration at which colloidal aggregates form", "setting": "[1]; [5]", "value": "≥ 330", "unit": "µM"},
      {"measurement": "effect of centrifugation on aggregates", "setting": "[1]", "value": "pelleted by centrifugation"},
      {"measurement": "IC50", "setting": "APE1; read-out: IC50 for APE1 inhibition (previous finding)", "value": 0.3, "unit": "µM"}
    ]},
    {"compound": "Cc1cc(C)c2c(N)c3cccc(C)c3nc2n1", "note": "[Compound 6]", "values": [
      {"measurement": "slope factor of the dependence of FA on compound concentration", "setting": "[2]; 0.05% Brij 35, 0.1 mg/ml BSA", "value": "1.5 ± 0.2"},
      {"measurement": "IC50", "setting": "[2]; [8]", "value": "3.1 ± 0.3", "unit": "µM"},
      {"measurement": "IC50", "setting": "[2]; as restated in the NMR section, read-out: IC50 observed here", "value": 3, "unit": "µM"},
      {"measurement": "residues exhibiting Δδ >0.015 ppm", "setting": "apo APE1^ΔN38; 0.10 mM apo APE1, 0.30 mM compound", "value": "no residues"},
      {"measurement": "IC50", "setting": "APE1; read-out: IC50 for APE1 inhibition in vitro (previous finding)", "value": 2, "unit": "µM"},
      {"measurement": "CSPs (Δδ >0.015 ppm) for any residue of Mg2+-bound APE1", "setting": "Mg^2+-bound APE1; compound 0.30 mM, APE1 0.10 mM", "value": "does not induce CSPs"}
    ]},
    {"compound": "CC(=O)Nc1sc2c(c1-c1nc3ccccc3s1)CCN(C(C)C)C2", "note": "[Compound 7, N-(3-(benzo[d]-thiazol-2-yl)-6-isopropyl-4,5,6,7-tetrahydrothieno[2,3-c]-pyridin-2-yl)acetamide]", "values": [
      {"measurement": "slope factor of the dependence of FA on compound concentration", "setting": "[2]; 0.05% Brij 35, 0.1 mg/ml BSA", "value": "1.2 ± 0.1"},
      {"measurement": "IC50", "setting": "[2]; [8]", "value": "8.1 ± 0.6", "unit": "µM"},
      {"measurement": "residues exhibiting Δδ >0.015 ppm", "setting": "apo APE1^ΔN38; 0.05 mM apo APE1, 0.03 mM compound, 0.05% Brij 35", "value": "two"},
      {"measurement": "Kd", "setting": "apo APE1^ΔN38; inferred from the absence of a detectible interaction, apo-APE1 0.05 mM, compound 0.03 mM, read-out: Kd for binding to apo-APE1", "value": "> 30", "unit": "µM"},
      {"measurement": "population of AP-DNA bound", "setting": "[3]; compound 0.01 mM", "value": "about 30%"},
      {"measurement": "population of AP-DNA bound", "setting": "[3]; compound 0.03 mM", "value": "~ 5%"},
      {"measurement": "Kd", "setting": "[3]; inferred from the previous EMSA results, read-out: Kd for binding to either APE1 or AP-DNA", "value": "< 10", "unit": "µM"},
      {"measurement": "concentration at which the compound precipitates in NMR samples", "setting": "[4]", "value": "≥ 90", "unit": "µM"},
      {"measurement": "CSPs (Δδ >0.015 ppm) for any backbone residue of Mg2+-bound APE1", "setting": "Mg^2+-bound APE1; compound 0.030 mM, APE1 0.05 mM, 0.05% Brij 35", "value": "fails to induce CSPs"}
    ]}
  ]
}
